Experimental data reported in PubChem BioAssay AID2060325 (Molecular Pharmacology Branch, DTP, NCI, 2025).

System: SK-OV-3 multi-cell spheroids, viability
Assay: Anticancer human tumor SK-OV-3 cell line growth inhibition [IpAb];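 for viability, T/C: viability read after seven days of drug exposure; percent of DMSO vehicle control luminescence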
Details: for IC50: curve of first compound; for viability, T/C: stronger effect = lower value
In short: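 Combinations with ipatasertib or abemaciclib were tested on tumour spheroids holding HUVEC (25%) and MSC (15%) alongside 60% malignant cells. Top concentration was at or near clinical Cmax (10 microM if undefined), descending in half-log steps.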

[1] = second compound 0.01 µM, first compound 0.0316 µM
[2] = second compound 0.01 µM, first compound 0.1 µM
[3] = second compound 0.01 µM, first compound 0.316 µM
[4] = second compound 0.01 µM, first compound 1 µM
[5] = second compound 0.01 µM, first compound 3.16 µM
[6] = second compound 0.01 µM, first compound 10 µM
[7] = second compound 0.0316 µM, first compound 0.0316 µM
[8] = second compound 0.0316 µM, first compound 0.1 µM
[9] = second compound 0.0316 µM, first compound 0.316 µM
[10] = second compound 0.0316 µM, first compound 1 µM
[11] = second compound 0.0316 µM, first compound 3.16 µM
[12] = second compound 0.0316 µM, first compound 10 µM
[13] = second compound 0.1 µM, first compound 0.0316 µM
[14] = second compound 0.1 µM, first compound 0.1 µM
[15] = second compound 0.1 µM, first compound 0.316 µM
[16] = second compound 0.1 µM, first compound 1 µM
[17] = second compound 0.1 µM, first compound 3.16 µM
[18] = second compound 0.1 µM, first compound 10 µM
[19] = second compound 0.316 µM, first compound 0.0316 µM
[20] = second compound 0.316 µM, first compound 0.1 µM
[21] = second compound 0.316 µM, first compound 0.316 µM
[22] = second compound 0.316 µM, first compound 1 µM
[23] = second compound 0.316 µM, first compound 3.16 µM
[24] = second compound 0.316 µM, first compound 10 µM
[25] = second compound 1 µM, first compound 0.0316 µM
[26] = second compound 1 µM, first compound 0.1 µM
[27] = second compound 1 µM, first compound 0.316 µM
[28] = second compound 1 µM, first compound 1 µM
[29] = second compound 1 µM, first compound 3.16 µM
[30] = second compound 1 µM, first compound 10 µM
[31] = second compound 0.01 µM, first compound 0.00949 µM
[32] = second compound 0.01 µM, first compound 0.03 µM
[33] = second compound 0.01 µM, first compound 0.0949 µM
[34] = second compound 0.01 µM, first compound 0.3 µM
[35] = second compound 0.0316 µM, first compound 0.00949 µM
[36] = second compound 0.0316 µM, first compound 0.03 µM
[37] = second compound 0.0316 µM, first compound 0.0949 µM
[38] = second compound 0.0316 µM, first compound 0.3 µM
[39] = second compound 0.1 µM, first compound 0.00949 µM
[40] = second compound 0.1 µM, first compound 0.03 µM
[41] = second compound 0.1 µM, first compound 0.0949 µM
[42] = second compound 0.1 µM, first compound 0.3 µM
[43] = second compound 0.316 µM, first compound 0.00949 µM
[44] = second compound 0.316 µM, first compound 0.03 µM
[45] = second compound 0.316 µM, first compound 0.0949 µM
[46] = second compound 0.316 µM, first compound 0.3 µM
[47] = second compound 1 µM, first compound 0.00949 µM
[48] = second compound 1 µM, first compound 0.03 µM
[49] = second compound 1 µM, first compound 0.0949 µM
[50] = second compound 1 µM, first compound 0.3 µM

With `C=CC(=O)N1CCN(c2nc(=O)n(-c3c(C)ccnc3C(C)C)c3nc(-c4c(O)cccc4F)c(F)cc23)C(C)C1` (stereo not given) + CCN1CCN(Cc2ccc(Nc3ncc(F)c(-c4cc(F)c5nc(C)n(C(C)C)c5c4)n3)nc2)CC1 the IC50 (second compound 0.01 µM) was > 10000 nM, the IC50 (second compound 0.0316 µM) was > 10000 nM and the IC50 (second compound 0.1 µM) was > 10000 nM. The IC50 (second compound 0.316 µM) was > 10000 nM, the IC50 (second compound 1 µM) was > 10000 nM and the viability, T/C [1] was 89.9%. It also gave a viability, T/C [2] of 99.2%, a viability, T/C [3] of 93.8% and a viability, T/C [4] of 107%. The viability, T/C [5] was 96.5%, the viability, T/C [6] was 61.7% and the viability, T/C [7] was 74.4%. It also gave a viability, T/C [8] of 82.8%, a viability, T/C [9] of 79% and a viability, T/C [10] of 81.8%. For the same compound, the viability, T/C [11] was 85.4%, the viability, T/C [12] was 53.8% and the viability, T/C [13] was 58.8%. For the same compound, the viability, T/C [14] was 66.5%, the viability, T/C [15] was 65.5% and the viability, T/C [16] was 69%. It also gave a viability, T/C [17] of 73.2%, a viability, T/C [18] of 47.1% and a viability, T/C [19] of 53.7%. It also gave a viability, T/C [20] of 59%, a viability, T/C [21] of 61.8% and a viability, T/C [22] of 61%. The viability, T/C [23] was 62.8%, the viability, T/C [24] was 48% and the viability, T/C [25] was 47%. It also gave a viability, T/C [26] of 53.3%, a viability, T/C [27] of 53.7% and a viability, T/C [28] of 55.5%. It also gave a viability, T/C [29] of 57.5% and a viability, T/C [30] of 46.9%.

In the case of `CC(=O)c1c(C)c2cnc(Nc3ccc(N4CCNCC4)cn3)nc2n(C2CCCC2)c1=O` + CCN1CCN(Cc2ccc(Nc3ncc(F)c(-c4cc(F)c5nc(C)n(C(C)C)c5c4)n3)nc2)CC1, the IC50 (second compound 0.01 µM) is reported as 274 nM, the IC50 (second compound 0.0316 µM) is reported as 63.1 nM and the IC50 (second compound 0.1 µM) is reported as 8.82 nM. For the same compound, the IC50 (second compound 0.316 µM) was 2.61 nM, the IC50 (second compound 1 µM) was < 0.949 nM and the viability, T/C (second compound 0.01 µM, first compound 0.000949 µM) was 79.7%. The viability, T/C (second compound 0.01 µM, first compound 0.003 µM) was 77.4%, the viability, T/C [31] was 66% and the viability, T/C [32] was 57.5%. For the same compound, the viability, T/C [33] was 53.3%, the viability, T/C [34] was 48.9% and the viability, T/C (second compound 0.0316 µM, first compound 0.000949 µM) was 68%. It also gave a viability, T/C (second compound 0.0316 µM, first compound 0.003 µM) of 62.5%, a viability, T/C [35] of 56.5% and a viability, T/C [36] of 50.9%. For the same compound, the viability, T/C [37] was 49.1%, the viability, T/C [38] was 46.7% and the viability, T/C (second compound 0.1 µM, first compound 0.000949 µM) was 57.7%. The viability, T/C (second compound 0.1 µM, first compound 0.003 µM) was 52.3%, the viability, T/C [39] was 51.8% and the viability, T/C [40] was 46.9%. The viability, T/C [41] was 40.5%, the viability, T/C [42] was 42% and the viability, T/C (second compound 0.316 µM, first compound 0.000949 µM) was 51.5%. It also gave a viability, T/C (second compound 0.316 µM, first compound 0.003 µM) of 49%, a viability, T/C [43] of 51% and a viability, T/C [44] of 45.6%. It also gave a viability, T/C [45] of 45.5%, a viability, T/C [46] of 46.8% and a viability, T/C (second compound 1 µM, first compound 0.000949 µM) of 41.4%. For the same compound, the viability, T/C (second compound 1 µM, first compound 0.003 µM) was 43.1%, the viability, T/C [47] was 42.3% and the viability, T/C [48] was 35.9%. The viability, T/C [49] was 39.2% and the viability, T/C [50] was 42.4%.

For `CC(C)(C)c1cnc(CSc2cnc(NC(=O)C3CCNCC3)s2)o1` + CCN1CCN(Cc2ccc(Nc3ncc(F)c(-c4cc(F)c5nc(C)n(C(C)C)c5c4)n3)nc2)CC1, the IC50 (second compound 0.01 µM) was 196 nM, the IC50 (second compound 0.0316 µM) was 168 nM and the IC50 (second compound 0.1 µM) was 147 nM. For the same compound, the IC50 (second compound 0.316 µM) was 129 nM, the IC50 (second compound 1 µM) was < 9.49 nM and the viability, T/C [31] was 99.3%. The viability, T/C [32] was 109%, the viability, T/C [33] was 104% and the viability, T/C [34] was 18.4%. It also gave a viability, T/C (second compound 0.01 µM, first compound 0.949 µM) of 0.62%, a viability, T/C (second compound 0.01 µM, first compound 3 µM) of 1.2% and a viability, T/C [35] of 80.2%. The viability, T/C [36] was 87.8%, the viability, T/C [37] was 88.3% and the viability, T/C [38] was 14%. The viability, T/C (second compound 0.0316 µM, first compound 0.949 µM) was 1.38%, the viability, T/C (second compound 0.0316 µM, first compound 3 µM) was 1.32% and the viability, T/C [39] was 63%. It also gave a viability, T/C [40] of 70.4%, a viability, T/C [41] of 80.5% and a viability, T/C [42] of 15.7%. For the same compound, the viability, T/C (second compound 0.1 µM, first compound 0.949 µM) was 0.84%, the viability, T/C (second compound 0.1 µM, first compound 3 µM) was 0.9% and the viability, T/C [43] was 60.1%. The viability, T/C [44] was 62%, the viability, T/C [45] was 63.4% and the viability, T/C [46] was 17.3%. The viability, T/C (second compound 0.316 µM, first compound 0.949 µM) was 0.83%, the viability, T/C (second compound 0.316 µM, first compound 3 µM) was 1.1% and the viability, T/C [47] was 44.7%. The viability, T/C [48] was 51.1%, the viability, T/C [49] was 50.1% and the viability, T/C [50] was 12.7%. For the same compound, the viability, T/C (second compound 1 µM, first compound 0.949 µM) was 1.41% and the viability, T/C (second compound 1 µM, first compound 3 µM) was 1.15%.

Work on `Cn1nccc1Nc1nccc(-c2ccn(C(CO)c3ccc(Cl)c(F)c3)c(=O)c2)n1` (stereo not given) + CCN1CCN(Cc2ccc(Nc3ncc(F)c(-c4cc(F)c5nc(C)n(C(C)C)c5c4)n3)nc2)CC1 yielded an IC50 (second compound 0.01 µM) of 7380 nM, an IC50 (second compound 0.0316 µM) of 6800 nM and an IC50 (second compound 0.1 µM) of 9030 nM. The IC50 (second compound 0.316 µM) was 4250 nM, the IC50 (second compound 1 µM) was < 31.6 nM and the viability, T/C [1] was 84%. For the same compound, the viability, T/C [2] was 98.2%, the viability, T/C [3] was 105% and the viability, T/C [4] was 118%. For the same compound, the viability, T/C [5] was 91.6%, the viability, T/C [6] was 35.1% and the viability, T/C [7] was 71.3%. The viability, T/C [8] was 80.8%, the viability, T/C [9] was 84.4% and the viability, T/C [10] was 102%. It also gave a viability, T/C [11] of 74%, a viability, T/C [12] of 38% and a viability, T/C [13] of 56.2%. For the same compound, the viability, T/C [14] was 55.9%, the viability, T/C [15] was 63.2% and the viability, T/C [16] was 69.6%. The viability, T/C [17] was 60.3%, the viability, T/C [18] was 34.3% and the viability, T/C [19] was 52.1%. The viability, T/C [20] was 55.9%, the viability, T/C [21] was 61.1% and the viability, T/C [22] was 58.8%. For the same compound, the viability, T/C [23] was 54.4%, the viability, T/C [24] was 36% and the viability, T/C [25] was 40.8%. For the same compound, the viability, T/C [26] was 48.9%, the viability, T/C [27] was 52.2% and the viability, T/C [28] was 60%. The viability, T/C [29] was 57% and the viability, T/C [30] was 40.2%.
